Patent publication US11584766B2, “Nicotinamide phosphoribosyltransferase inhibitors and methods for use of the same” (THE TRUSTEES OF INDIANA UNIVERSITY, priority 2018, dated 2023)
Counter-ions that a name gives are not always drawn. Like-named read-outs stand apart in the source and are kept apart here.

How the values were obtained:
NAMPT = biological target: T1, NAMPT (Homo sapiens, UniProt P43490); assay: CycLex NAMPT Colorimetric Assay; assay type: biochemical; conditions: for IC50: CycLex NAMPT Colorimetric Assay Kit, read-out: NAMPT Inhibition IC50
T1 construct: purchased MBL International Corporation (CycLex NAMPT Colorimetric Assay Kit Ver.2)
T1 sequence (P43490 whole entry): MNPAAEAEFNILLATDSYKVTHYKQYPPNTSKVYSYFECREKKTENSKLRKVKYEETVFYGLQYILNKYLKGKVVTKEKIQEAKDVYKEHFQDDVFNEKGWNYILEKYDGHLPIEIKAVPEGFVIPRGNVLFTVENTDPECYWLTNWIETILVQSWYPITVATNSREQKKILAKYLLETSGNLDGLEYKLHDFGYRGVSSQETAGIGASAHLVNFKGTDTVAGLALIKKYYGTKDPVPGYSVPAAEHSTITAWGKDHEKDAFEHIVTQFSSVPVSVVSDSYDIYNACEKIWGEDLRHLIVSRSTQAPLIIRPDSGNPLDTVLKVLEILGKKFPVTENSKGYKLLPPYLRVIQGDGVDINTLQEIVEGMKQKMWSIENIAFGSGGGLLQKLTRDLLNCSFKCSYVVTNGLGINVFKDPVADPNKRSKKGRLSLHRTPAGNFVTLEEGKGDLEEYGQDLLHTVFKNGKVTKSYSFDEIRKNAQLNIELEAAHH
Procedure: The ability of the compounds of the disclosure to inhibit NAMPT was determined using the CycLex NAMPT Colorimetric Assay Kit Ver.2 by MBL International Corporation.
The assay detects NAMPT activity in recombinant NAMPT or endogenous NAMPT immunoprecipiated from cell lysates according to the scheme shown in FIG. 3. In this method, NAMPT converts nicotinamide to nicotinamide mononucleotide (“NMN”). Subsequently, nicotinamide mononucleotide adenylyltransferase 1 (“NMNAT1”) converts NMN to NAD^+. Resultant NAD^+ can be measured by enzyme cycling reaction using alcohol dehydrogenase (“ADH”), diaphorase and WST-1.

[1] = system: human pulmonary artery endothelial cells (hPAECs); assay: BrdU Assay (proliferation), hPAEC; assay type: cell-based; conditions: for effect on HPAEC proliferation (BrdU assay): dose response, FIG. 6; for IC50: Homo sapiens, Endothelial cell
Procedure: (§1) The effect of the compounds disclosed herein on the viability, proliferation, and apoptosis of human pulmonary artery endothelial cells (“hPAECs,”) and human pulmonary artery smooth muscle cells (“hPASMCs”) was determined using the PrestoBlue Assay (viability), CYQuant Direct or BrdU Assay (proliferation) or Tunel Assay (apoptosis), as described below.
(§2) HPAECs (1×10^4 cells/well) or HPASMCs (2.5×10^3 cells/well) were seeded in 96-well plates for 24 h in full-serum tissue culture medium. The full medium was removed prior to treatment with a NAMPT inhibitor prepared in medium containing 0.1% serum. NAMPT inhibitors were solubilized in 100% DMSO, unless otherwise indicated, prior to preparation of the dose response curve in 100% DMSO. The treatment dose response curve was diluted in 0.1% serum tissue culture medium and administered to cells for 24 h. DMSO diluted in the same medium was used as the vehicle control. Cell viability was measured according to the manufacturer's protocol by adding the PrestoBlue Cell Viability Reagent (ThermoFisher Scientific, #A13261) to cells for 20 min at 37° C. in a tissue culture incubator, followed by reading fluorescence at ex560/em590. Cell proliferation was measured, either in the same wells or in separate experiments, by adding the CyQuant Direct Confirmation Reagent (ThermoFisher Scientific, #C35011) for 1 h at 37° C. in a tissue culture incubator, followed by reading fluorescence at ex485/em538. Proliferation was also measured, in separate experiments, using the BrdU Cell Proliferation Assay (Calbiochem, #QIA58). After treatment with a NAMPT inhibitor for 24 h, BrdU was added to the cells in the presence of the inhibitor, for an additional 24 h and BrdU incorporation was detected according to the manufacturer's protocol. Apoptosis was analyzed by seeding cells (1×10^5 cells/well) in 6-well plates for 24 h in full-serum medium, followed by treatment with a NAMPT inhibitor for 24 h in full-serum medium. Tunel staining and detection was performed using the Tunel Assay Kit (Abcam, #ab66110) according to the manufacturer's protocol.

[2] = system: human pulmonary artery smooth muscle cells (hPASMCs); assay: BrdU Assay (proliferation), hPASMC; assay type: cell-based
Procedure: as §1, §2

[3] = Solubility (2.5% v/v DMSO/water); assay type: physicochemical
[4] = system: human pulmonary artery endothelial cells (hPAECs); assay: PrestoBlue Assay (viability), hPAEC; assay type: cell-based; conditions: for effect on HPAEC viability: dose response, FIG. 4
Procedure: as §1, §2

[5] = system: human pulmonary artery endothelial cells (hPAECs); assay: CyQUANT Direct Assay (proliferation), hPAEC; assay type: cell-based; conditions: for effect on HPAEC proliferation (CYQuant Direct assay): dose response, FIG. 5
Procedure: as §1, §2

| IC50 (NAMPT) [µM] | SMILES | further results |
| --- | --- | --- |
| 0.071 | O=C(/C=C/c1cccnc1)NCCCCCCN1c2ccccc2CCc2cc(Br)ccc21 [5.2.3d] | – |
| 0.368 | CC[Si]1(CC)c2ccccc2N(C(=O)CCCCCNC(=O)CCc2cccnc2)C1C (stereo not shown) [DGMS-RAR-5H2] | – |
| 0.17 | Cc1ccc2c(ccn2CCCCCCNC(=O)/C=C/c2cccnc2)c1 [5.2.3g] | – |
| ~0.1 | O=C(/C=C/c1cccnc1)NCCCCCCn1ccc2cc(OCc3ccccc3)ccc21 [DGMS-RAR-6•HO3SMe] | % NAMPT Inhibition at 10 μM (NAMPT): 97% |
| 0.11 | O=C(/C=C/c1cccnc1)NCCCCCCn1ccc2cnccc21 [5.2.3k] | – |
| 1.05 | O=C(O)CC1CN(C(=O)CCCCCNC(=O)/C=C/c2cccnc2)c2ccccc21 (stereo not shown) [DGMS-RAR-PEG3A] | – |
| 0.386 | O=C(/C=C/c1cccnc1)NCCCCCCn1c(-c2ccccc2)cc2cc3c(cc21)OCO3 | – |
| 0.668 | [2H][C@@H](C(=O)NCCCCCC(=O)N1c2ccccc2[Si](CC)(CC)C1C)[C@@H]([2H])c1cccnc1 (stereo partly shown) [DGMS-RAR-5D2] | – |
| 0.141 | C[Si]1(C)CN(C(=O)CCCCCNC(=O)/C=C/c2cccnc2)c2ccccc21 [DGMS-RAR-4] | – |
| 0.026 | O=C(/C=C/c1cccnc1)NCCCCCCN1c2ccccc2CC1c1ccccc1 (stereo not shown) [5.2.3e] | – |
| 0.047 | CC1Cc2ccccc2N1CCCCCCNC(=O)/C=C/c1cccnc1 (stereo not shown) [DGMS-RAR-1•HCl] | – |
| 0.155 | O=C(/C=C/c1cccnc1)NCCCCCCn1ccc2cc(I)ccc21 [5.2.3l] | – |
| 0.1 | COC(=O)Cc1cn(CCCCCCNC(=O)/C=C/c2cccnc2)c2ccccc12 [5.2.3h] | – |
| < 0.01 | CCOC(=O)Cc1cn(CCCCCCNC(=O)/C=C/c2cccnc2)c2ccccc12 [DGMS-RAR-PEG2E] | inhibition at 10 µM (NAMPT): 99% |
| 0.08 | O=C(/C=C/c1cccnc1)NCCCCCCN1c2ccccc2CCc2ccccc21 [DGMS-RAR-2] | IC50 [1]: 1.31 µM; effect on HPAEC proliferation (BrdU assay) [1]: dose-dependently decrease cell proliferation; IC50 ([2]; Homo sapiens): 1.5 µM |
| 0.124 | O=C(/C=C/c1cccnc1)NCCCCCCn1c(-c2ccccc2)cc2cc(O)c(O)cc21 | – |

| IC50 (NAMPT) [µM] | SMILES | further results |
| --- | --- | --- |
| 1.59 | C[Si]1(C)CN(C(=O)CCCCCNC(=O)CCc2cccnc2)c2ccccc21 [DGMS-RAR-4H2] | – |
| 0.041 | O=C(/C=C/c1cccnc1)NCCCCCC(=O)N1c2ccccc2CC1c1ccccc1 (stereo not shown) [DGMS-RAR-7] | effect on HPAEC viability [4]: dose-dependently decrease cell viability; IC50 ([4]; hPAEC, 24 h treatment): 1.59 µM; effect on HPAEC proliferation (CYQuant Direct assay) [5]: dose-dependently decrease cell proliferation; IC50 ([5]; hPAEC, 24 h treatment): 1 µM; IC50 [1]: 95.8 µM; effect on HPAEC proliferation (BrdU assay) [1]: dose-dependently decrease cell proliferation; IC50 [2]: 35400 µM |
| 0.23 | O=C(/C=C/c1cccnc1)NCCCCCCn1ccc2ccncc21 [5.2.3b] | – |
| 1.54 | O=C(/C=C/c1cccnc1)NCCCCCCn1ccc2cccnc21 | – |
| 0.04 | O=C(O)Cc1cn(CCCCCCNC(=O)/C=C/c2cccnc2)c2ccccc12 [DGMS-RAR-PEG2A] | inhibition at 10 µM (NAMPT): 98% |
| 0.049 | CC1Cc2ccccc2N1C(=O)CCCCCNC(=O)/C=C/c1cccnc1 (stereo not shown) [DGMS-RAR1] | – |
| 0.034 | CC1Cc2ccccc2N1C(=O)CCCCCNC(=O)/C=C/c1cccnc1 (stereo not shown) [DGMS-RAR-1•HO3SMe] | – |
| 0.082 | Cc1cc2ccccc2n1CCCCCCNC(=O)/C=C/c1cccnc1 [5.2.3a] | – |
| 1.01 | O=C(/C=C/c1cccnc1)NCCCCCCn1ccc2cc(OCc3ccccc3)ccc21 [DGMS-RAR-6] | – |
| 0.632 | [2H][C@@H](C(=O)NCCCCCC(=O)N1c2ccccc2CC1C)[C@@H]([2H])c1cccnc1 (stereo partly shown) [DGMS-RAR-1 D2] | – |
| 2.31 | [2H][C@@H](C(=O)NCCCCCC(=O)N1C[Si](C)(C)c2ccccc21)[C@@H]([2H])c1cccnc1 [DGMS-RAR-4D2] | – |
| 0.021 | COCCOCCOCCOCCOC(=O)CC1CN(C(=O)CCCCCNC(=O)/C=C/c2cccnc2)c2ccccc21 (stereo not shown) [DGMS-RAR-PEG3] | Solubility (2.5% v/v DMSO/water) [3]: Good; effect on HPAEC viability [4]: dose-dependently decrease cell viability; effect on HPAEC proliferation (CYQuant Direct assay) [5]: dose-dependently decrease cell proliferation |
| ~0.1 | O=C(/C=C/c1cccnc1)NCCCCCCn1ccc2cc(OCc3ccccc3)ccc21 [DGMS-RAR-6•HCl] | inhibition at 10 µM (NAMPT): 97% |
| 0.044 | CCOC(=O)CC1CN(C(=O)CCCCCNC(=O)/C=C/c2cccnc2)c2ccccc21 (stereo not shown) [DGMS-RAR-PEG3E] | – |
| 0.072 | O=C(/C=C/c1cccnc1)NCCCCCC(=O)N1CCCCc2ccccc21 [DGMS-RAR-3] | – |

The remaining lines, values behind:

| SMILES | IC50 (NAMPT) [µM] | further results |
| --- | --- | --- |
| [2H][C@@H](C(=O)NCCCCCC(=O)N1CCc2cc(O)ccc21)[C@@H]([2H])c1cccnc1 | 0.189 | – |
| Cc1ccc2c(ccn2CCCCCCNC(=O)CCc2cccnc2)c1 | 1.53 | – |
| [2H][C@@H](C(=O)NCCCCCCn1c(-c2ccccc2)cc2ccccc21)[C@@H]([2H])c1cccnc1 | 0.092 | – |
| CC1Cc2ccccc2N1C(=O)CCCCCNC(=O)/C=C/c1cccnc1 (stereo not shown) | – | effect on HPAEC proliferation (BrdU assay) [1]: dose-dependently decrease cell proliferation; IC50 ([2]; Homo sapiens): 51.9 µM |
| O=C(CCc1cccnc1)NCCCCCCn1ccc2ccncc21 [5.2.3b H2] | 2.14 | – |
| CC[Si]1(CC)c2ccccc2N(C(=O)CCCCCNC(=O)/C=C/c2cccnc2)C1C (stereo not shown) [DGMS-RAR-5•OTs] | 0.0103 | – |
| O=C(CCc1cccnc1)NCCCCCCn1c(-c2ccccc2)cc2ccccc21 | ~10 | – |
| O=C(CCc1cccnc1)NCCCCCCn1ccc2cc(O)ccc21 [5.2.3t H2] | 1.2 | – |
| O=C(/C=C/c1cccnc1)NCCCCCCn1c(-c2ccccc2)cc2ccccc21 [DGMS-RARI•HO3SMe] | 0.012 | % NAMPT Inhibition at 10 μM (NAMPT): 98% |
| COCCOCCOCCOCCOC(=O)CCC(=O)Oc1ccc2c(ccn2CCCCCCNC(=O)/C=C/c2cccnc2)c1 [DGMS-RAR-mPEG3] | 0.02 | inhibition at 10 µM (NAMPT): 97%; Solubility (2.5% v/v DMSO/water) [3]: good |
| O=C(CCc1cccnc1)NCCCCCCN1c2ccccc2CCc2ccccc21 [DGMS-RAR-5.2.3c H2] | 0.1 | – |
| CC[Si]1(CC)c2ccccc2N(C(=O)CCCCCNC(=O)/C=C/c2cccnc2)C1C (stereo not shown) [DGMS-RAR-5•O3SMe] | 0.014 | inhibition at 10 µM (NAMPT): 99%; Solubility (2.5% v/v DMSO/water) [3]: Good |
| COCCOCCOCCOCCOC(=O)Cc1cn(CCCCCCNC(=O)/C=C/c2cccnc2)c2ccccc12 [DGMS-RAR-PEG2] | 0.021 | inhibition at 10 µM (NAMPT): 97%; Solubility (2.5% v/v DMSO/water) [3]: Moderate; effect on HPAEC viability [4]: dose-dependently decrease cell viability |
| [2H][C@@H](C(=O)NCCCCCCn1ccc2cc(OC)ccc21)[C@@H]([2H])c1cccnc1 [5.2.3f D2] | 0.665 | – |
| [2H][C@@H](C(=O)NCCCCCCn1ccc2cc(OCc3ccccc3)ccc21)[C@@H]([2H])c1cccnc1 (relative stereo) [DGMS-RAR-6 D2] | 0.233 | – |
| Cl.O=C(/C=C/c1cccnc1)NCCCCCCn1c(-c2ccccc2)cc2ccccc21 [DGMS-RARI•HCl] | 0.032 | % NAMPT Inhibition at 10 μM (NAMPT): 98%; Solubility (2.5% v/v DMSO/water) [3]: Moderate |
| CC[Si]1(CC)c2ccccc2N(C(=O)CCCCCNC(=O)/C=C/c2cccnc2)C1C (stereo not shown) [DGMS-RAR-5] | 0.011 | effect on HPAEC proliferation (BrdU assay) [1]: dose-dependently decrease cell proliferation; IC50 ([2]; Homo sapiens): 102 µM |
| COc1ccc2c(ccn2CCCCCCNC(=O)CCc2cccnc2)c1 | 0.674 | – |
| O=C(CCc1cccnc1)NCCCCCCn1ccc2cc(OCc3ccccc3)ccc21 [DGMS-RAR-6 H2] | 0.582 | – |
| O=C(CCc1cccnc1)NCCCCCCn1ccc2cccnc21 | 2.4 | – |
| Cc1cc2ccccc2n1CCCCCCNC(=O)CCc1cccnc1 | 0.97 | – |
